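These data come from cells grown in 96-well plates and exposed to compound for 48 hours at five concentrations. At the GI50, growth is halved. TGI denotes the concentration required for complete inhibition of growth.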
Legend:
Test in all cases: inhibition of tumour cell growth, NCI panel, 48 h
[1] = system: A549 NSCLC
[2] = system: M14 melanoma
[3] = system: HCT-116 colon
[4] = system: UO-31 renal
[5] = system: MCF7 breast
[6] = system: HCT-15 colon
[7] = system: SW-620 colon
[8] = system: CCRF-CEM leukemia
[9] = system: T-47D breast
[10] = system: BT-549 breast

SMILES | TGI [1] | TGI [2] | TGI [3] | TGI [4] | TGI [5] | TGI [6] | TGI [7] | TGI [8] | TGI [9] | TGI [10] | GI50 [2] | GI50 [10] | GI50 [6] | GI50 [8]
O=c1oc(C(C(F)(F)F)C(F)(F)F)nc2ccccc12 | > 100 µM | > 100 µM | > 100 µM | > 100 µM | > 100 µM | > 100 µM | > 100 µM | > 100 µM | – | – | – | – | – | –
CC(C)/C(Cl)=N\OC(NC(=O)P(=O)(c1ccccc1)c1ccccc1)(C(F)(F)F)C(F)(F)F | 42.8 µM | 15.8 µM | 21.5 µM | 21 µM | 34 µM | 37.8 µM | 53.9 µM | 22.5 µM | > 100 µM | – | – | – | – | –
O=C(O)c1ccccc1N=Cc1ccc(N(CCCl)CCCl)cc1 | > 100 µM | – | > 100 µM | > 100 µM | > 100 µM | > 100 µM | > 100 µM | > 100 µM | – | – | – | – | – | –
O=C1NC(=O)C(C(CC(=O)c2ccc(Cl)cc2)c2ccc(Cl)cc2)C(=O)N1 (stereo unspecified) | > 100 µM | > 100 µM | > 100 µM | > 100 µM | 44.2 µM | > 100 µM | > 100 µM | > 100 µM | – | > 100 µM | – | – | – | –
CC(C)=CCNc1nc(Cl)nc2nc[nH]c12 | > 100 µM | > 100 µM | 69.8 µM | > 100 µM | > 100 µM | – | > 100 µM | > 100 µM | > 100 µM | – | – | – | – | –
Cc1ccc(S(=O)(=O)Nn2c(O)c(C#N)c(-c3ccc(Cl)cc3)c(C#N)c2=O)cc1 | > 100 µM | > 100 µM | > 100 µM | – | > 100 µM | > 100 µM | > 100 µM | > 100 µM | – | > 100 µM | – | – | – | –
C=CC[n+]1c2ccccc2n2cc([N+](=O)[O-])ccc21 | > 100 µM | > 100 µM | 78.7 µM | > 100 µM | 79.8 µM | > 100 µM | > 100 µM | 55.3 µM | > 100 µM | – | – | – | – | –
COC(=O)C1C(=O)N(C)C(=O)N2CCCC12 (stereo unspecified) | > 100 µM | > 100 µM | – | > 100 µM | > 100 µM | > 100 µM | > 100 µM | > 100 µM | > 100 µM | – | – | – | – | –
C=CCP(=O)(CC=C)C(Cl)Cl | > 100 µM | > 100 µM | > 100 µM | > 100 µM | > 100 µM | > 100 µM | > 100 µM | > 100 µM | > 100 µM | – | – | – | – | –
COc1cccc(C=O)c1[O-].[O]=[U](=[O])([OH2+])[OH2+] | > 100 µM | > 100 µM | > 100 µM | > 100 µM | – | > 100 µM | > 100 µM | > 100 µM | – | – | – | – | – | –
CN=C(/N=c1\ssc(=NC)n1C)N(C)C | > 100 µM | > 100 µM | – | > 100 µM | – | – | > 100 µM | – | – | – | – | – | – | –
COc1ccc(-c2oc3cc(O)cc(O)c3c(=O)c2OC)cc1 | > 100 µM | > 100 µM | > 100 µM | 56.6 µM | > 100 µM | > 100 µM | > 100 µM | > 100 µM | > 100 µM | – | – | – | – | –
CC(C)(C)OC(=O)NCC(CNC(=O)OC(C)(C)C)c1nc(C(N)=O)cs1 | > 100 µM | > 100 µM | > 100 µM | > 100 µM | > 100 µM | > 100 µM | > 100 µM | > 100 µM | – | > 100 µM | – | – | – | –
COc1cccc(N[C@@H]2c3cc4c(cc3C(c3cc(OC)c(O)c(OC)c3)[C@H]3C(=O)OCC32)OCO4)c1 (stereo partly specified) | 2.14 µM | – | 18.7 µM | 9.78 µM | 14.4 µM | 2.39 µM | > 43.2 µM | 2.69 µM | – | – | – | – | – | –
Cc1cc(OC(=O)NCn2cc(-c3ccccc3)nn2)ccc1Cl | > 100 µM | > 100 µM | > 100 µM | – | > 100 µM | > 100 µM | > 100 µM | > 100 µM | – | > 100 µM | – | – | – | –
NCc1cccc(O)c1O | > 100 µM | > 100 µM | > 100 µM | > 100 µM | – | > 100 µM | > 100 µM | > 100 µM | – | – | – | – | – | –
CCN=C1C=CC(=C(c2ccc(N(CC)CC)cc2)c2ccc(N(CC)CC)cc2)c2ccccc21 | – | 1.22 µM | – | – | – | 1.21 µM | – | 1.52 µM | – | 0.602 µM | 0.184 µM | 0.107 µM | 0.299 µM | 0.0471 µM
O=c1[nH]n(Cc2ccccc2)c2ccc([N+](=O)[O-])cc12 | > 100 µM | > 100 µM | > 100 µM | > 100 µM | > 100 µM | > 100 µM | > 100 µM | > 100 µM | – | – | – | – | – | –
Cc1ccccc1N=C(N)Nc1ccccc1C | > 100 µM | > 100 µM | > 100 µM | – | > 100 µM | > 100 µM | > 100 µM | > 100 µM | > 100 µM | – | – | – | – | –
CC1(C)CC2(CC(C)(C)N1O)NC(=O)OC2=O | > 100 µM | – | > 100 µM | > 100 µM | > 100 µM | > 100 µM | > 100 µM | > 100 µM | – | – | – | – | – | –
CCc1cc2c(c3c1CCCC3=O)CC1(Cc3ccc(C(=O)OC)cc3C1)C2 (stereo unspecified) | > 100 µM | > 100 µM | > 100 µM | > 100 µM | > 100 µM | > 100 µM | > 100 µM | 91.4 µM | > 100 µM | – | – | – | – | –

From PubChem BioAssay (NCI)
